Source: ChEMBL document CHEMBL4507256 (2021)

Tests used:
[1] = test system: Mast/stem cell growth factor receptor Kit (Homo sapiens), P10721 [A829P]; conditions: Compound concentration 1000.0 nM
[2] = molecular target: Ephrin type-A receptor 6 (Homo sapiens) (UniProt Q9UF33); conditions: Compound concentration 1000.0 nM
[3] = molecular target: Serine/threonine-protein kinase PknB (Mycobacterium tuberculosis) (UniProt P9WI81); conditions: Compound concentration 1000.0 nM
[4] = molecular target: Serine/threonine-protein kinase ULK1 (Homo sapiens) (UniProt O75385); conditions: Compound concentration 1000.0 nM
[5] = molecular target: 5'-AMP-activated protein kinase catalytic subunit alpha-2 (Homo sapiens) (UniProt P54646); conditions: Compound concentration 1000.0 nM
[6] = molecular target: Serine/threonine-protein kinase SIK1 (Homo sapiens) (UniProt P57059); conditions: Compound concentration 1000.0 nM
[7] = molecular target: Glycogen synthase kinase-3 beta (Homo sapiens) (UniProt P49841); conditions: Compound concentration 1000.0 nM
[8] = molecular target: Kappa-type opioid receptor (Homo sapiens) (UniProt P41145); conditions: Compound concentration 10.0 uM
Chain of Kappa-type opioid receptor (Homo sapiens) (P41145 whole entry): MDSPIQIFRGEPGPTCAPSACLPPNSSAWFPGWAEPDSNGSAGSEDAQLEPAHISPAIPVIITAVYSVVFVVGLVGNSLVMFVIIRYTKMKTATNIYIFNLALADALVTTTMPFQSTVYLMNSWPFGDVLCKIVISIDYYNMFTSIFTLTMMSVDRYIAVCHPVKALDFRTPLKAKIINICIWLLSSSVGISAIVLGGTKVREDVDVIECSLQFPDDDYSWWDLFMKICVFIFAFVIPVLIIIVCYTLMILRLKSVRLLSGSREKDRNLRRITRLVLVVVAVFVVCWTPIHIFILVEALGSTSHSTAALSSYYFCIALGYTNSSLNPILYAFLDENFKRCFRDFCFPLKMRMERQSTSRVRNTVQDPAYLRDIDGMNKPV

[9] = molecular target: Mitogen-activated protein kinase kinase kinase 15 (Homo sapiens) (UniProt Q6ZN16); conditions: Compound concentration 1000.0 nM
[10] = molecular target: Mitogen-activated protein kinase kinase kinase 7 (Homo sapiens) (UniProt O43318); conditions: Compound concentration 1000.0 nM
[11] = test system: Tyrosine-protein kinase ABL1 (Homo sapiens), P00519 [Y253F]; conditions: Compound concentration 1000.0 nM
[12] = molecular target: Serine/threonine-protein kinase mTOR (Homo sapiens) (UniProt P42345); conditions: Compound concentration 1000.0 nM
[13] = molecular target: Serine/threonine-protein kinase 38-like (Homo sapiens) (UniProt Q9Y2H1); conditions: Compound concentration 1000.0 nM
[14] = molecular target: Serine/threonine-protein kinase SBK1 (Homo sapiens) (UniProt Q52WX2); conditions: Compound concentration 1000.0 nM
[15] = molecular target: Serine/threonine-protein kinase D1 (Homo sapiens) (UniProt Q15139); conditions: Compound concentration 1000.0 nM
[16] = molecular target: RAC-beta serine/threonine-protein kinase (Homo sapiens) (UniProt P31751); conditions: Compound concentration 1000.0 nM
[17] = molecular target: Ephrin type-A receptor 3 (Homo sapiens) (UniProt P29320); conditions: Compound concentration 1000.0 nM
[18] = molecular target: Serine/threonine-protein kinase ULK2 (Homo sapiens) (UniProt Q8IYT8); conditions: Compound concentration 1000.0 nM
Chain of Serine/threonine-protein kinase ULK2 (Homo sapiens) (Q8IYT8 whole entry): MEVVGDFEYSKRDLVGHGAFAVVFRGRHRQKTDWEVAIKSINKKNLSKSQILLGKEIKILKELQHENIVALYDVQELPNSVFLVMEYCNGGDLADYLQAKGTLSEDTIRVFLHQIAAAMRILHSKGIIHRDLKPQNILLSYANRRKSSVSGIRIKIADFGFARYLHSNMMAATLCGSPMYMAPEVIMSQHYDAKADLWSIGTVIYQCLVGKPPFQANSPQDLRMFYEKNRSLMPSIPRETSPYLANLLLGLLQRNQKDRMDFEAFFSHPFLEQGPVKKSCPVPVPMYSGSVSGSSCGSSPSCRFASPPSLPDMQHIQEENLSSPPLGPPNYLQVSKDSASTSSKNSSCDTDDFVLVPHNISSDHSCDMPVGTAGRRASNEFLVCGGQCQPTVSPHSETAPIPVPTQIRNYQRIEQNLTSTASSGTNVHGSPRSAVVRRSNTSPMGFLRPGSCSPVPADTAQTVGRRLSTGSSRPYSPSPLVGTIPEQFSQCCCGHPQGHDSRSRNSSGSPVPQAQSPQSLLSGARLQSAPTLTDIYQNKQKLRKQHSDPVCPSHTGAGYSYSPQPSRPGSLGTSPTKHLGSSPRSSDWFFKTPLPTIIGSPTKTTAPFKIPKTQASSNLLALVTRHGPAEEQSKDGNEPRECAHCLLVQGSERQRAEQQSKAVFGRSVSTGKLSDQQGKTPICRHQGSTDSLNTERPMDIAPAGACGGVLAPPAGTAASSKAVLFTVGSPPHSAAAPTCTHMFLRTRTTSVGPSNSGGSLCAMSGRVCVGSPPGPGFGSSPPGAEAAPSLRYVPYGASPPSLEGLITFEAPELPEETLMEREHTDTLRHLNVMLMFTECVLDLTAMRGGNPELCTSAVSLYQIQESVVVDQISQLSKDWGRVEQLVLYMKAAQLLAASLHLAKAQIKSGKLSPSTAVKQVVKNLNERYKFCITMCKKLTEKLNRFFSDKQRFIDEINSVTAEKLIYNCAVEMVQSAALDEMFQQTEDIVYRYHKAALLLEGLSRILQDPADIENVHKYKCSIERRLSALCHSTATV

[19] = molecular target: Vascular endothelial growth factor receptor 2 (Homo sapiens) (UniProt P35968); conditions: Compound concentration 1000.0 nM
[20] = test system: Tyrosine-protein kinase ABL1 (Homo sapiens), P00519 [F317L]; conditions: Compound concentration 1000.0 nM
[21] = molecular target: Dual specificity tyrosine-phosphorylation-regulated kinase 2 (Homo sapiens) (UniProt Q92630); conditions: Compound concentration 1000.0 nM
[22] = molecular target: Protein kinase C delta type (Homo sapiens) (UniProt Q05655); conditions: Compound concentration 1000.0 nM
[23] = molecular target: Mitogen-activated protein kinase kinase kinase 14 (Homo sapiens) (UniProt Q99558); conditions: Compound concentration 1000.0 nM
[24] = molecular target: Serine/threonine-protein kinase OSR1 (Homo sapiens) (UniProt O95747); conditions: Compound concentration 1000.0 nM
[25] = molecular target: T1, Muscarinic acetylcholine receptor M1 (Homo sapiens) (UniProt P11229); conditions: Compound concentration 10.0 uM
T1 sequence (whole entry): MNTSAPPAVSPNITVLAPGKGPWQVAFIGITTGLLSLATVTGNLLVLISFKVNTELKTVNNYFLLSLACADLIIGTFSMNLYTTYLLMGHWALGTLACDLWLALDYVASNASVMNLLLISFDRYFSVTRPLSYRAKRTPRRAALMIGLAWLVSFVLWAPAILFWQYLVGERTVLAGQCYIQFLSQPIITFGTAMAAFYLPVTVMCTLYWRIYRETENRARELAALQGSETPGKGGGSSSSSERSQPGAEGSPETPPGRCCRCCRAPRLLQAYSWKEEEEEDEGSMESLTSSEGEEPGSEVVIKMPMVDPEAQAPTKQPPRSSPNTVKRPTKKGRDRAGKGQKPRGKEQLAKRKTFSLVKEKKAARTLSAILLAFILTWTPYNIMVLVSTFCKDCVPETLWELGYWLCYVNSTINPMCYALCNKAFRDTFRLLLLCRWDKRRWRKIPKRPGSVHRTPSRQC

[26] = molecular target: 5'-AMP-activated protein kinase catalytic subunit alpha-1 (Homo sapiens) (UniProt Q13131); conditions: Compound concentration 1000.0 nM
[27] = test system: Tyrosine-protein kinase ABL1 (Homo sapiens), P00519 [F317L]; conditions: Compound concentration 1000.0 nM; remark: listed apart in the source
[28] = molecular target: Serine/threonine-protein kinase MAK (Homo sapiens) (UniProt P20794); conditions: Compound concentration 1000.0 nM
[29] = molecular target: Proto-oncogene tyrosine-protein kinase Src (Homo sapiens) (UniProt P12931); conditions: Compound concentration 1000.0 nM
[30] = molecular target: Serine/threonine-protein kinase PAK 6 (Homo sapiens) (UniProt Q9NQU5); conditions: Compound concentration 1000.0 nM
[31] = molecular target: Receptor tyrosine-protein kinase erbB-2 (Homo sapiens) (UniProt P04626); conditions: Compound concentration 1000.0 nM
Chain of Receptor tyrosine-protein kinase erbB-2 (Homo sapiens) (P04626 whole entry): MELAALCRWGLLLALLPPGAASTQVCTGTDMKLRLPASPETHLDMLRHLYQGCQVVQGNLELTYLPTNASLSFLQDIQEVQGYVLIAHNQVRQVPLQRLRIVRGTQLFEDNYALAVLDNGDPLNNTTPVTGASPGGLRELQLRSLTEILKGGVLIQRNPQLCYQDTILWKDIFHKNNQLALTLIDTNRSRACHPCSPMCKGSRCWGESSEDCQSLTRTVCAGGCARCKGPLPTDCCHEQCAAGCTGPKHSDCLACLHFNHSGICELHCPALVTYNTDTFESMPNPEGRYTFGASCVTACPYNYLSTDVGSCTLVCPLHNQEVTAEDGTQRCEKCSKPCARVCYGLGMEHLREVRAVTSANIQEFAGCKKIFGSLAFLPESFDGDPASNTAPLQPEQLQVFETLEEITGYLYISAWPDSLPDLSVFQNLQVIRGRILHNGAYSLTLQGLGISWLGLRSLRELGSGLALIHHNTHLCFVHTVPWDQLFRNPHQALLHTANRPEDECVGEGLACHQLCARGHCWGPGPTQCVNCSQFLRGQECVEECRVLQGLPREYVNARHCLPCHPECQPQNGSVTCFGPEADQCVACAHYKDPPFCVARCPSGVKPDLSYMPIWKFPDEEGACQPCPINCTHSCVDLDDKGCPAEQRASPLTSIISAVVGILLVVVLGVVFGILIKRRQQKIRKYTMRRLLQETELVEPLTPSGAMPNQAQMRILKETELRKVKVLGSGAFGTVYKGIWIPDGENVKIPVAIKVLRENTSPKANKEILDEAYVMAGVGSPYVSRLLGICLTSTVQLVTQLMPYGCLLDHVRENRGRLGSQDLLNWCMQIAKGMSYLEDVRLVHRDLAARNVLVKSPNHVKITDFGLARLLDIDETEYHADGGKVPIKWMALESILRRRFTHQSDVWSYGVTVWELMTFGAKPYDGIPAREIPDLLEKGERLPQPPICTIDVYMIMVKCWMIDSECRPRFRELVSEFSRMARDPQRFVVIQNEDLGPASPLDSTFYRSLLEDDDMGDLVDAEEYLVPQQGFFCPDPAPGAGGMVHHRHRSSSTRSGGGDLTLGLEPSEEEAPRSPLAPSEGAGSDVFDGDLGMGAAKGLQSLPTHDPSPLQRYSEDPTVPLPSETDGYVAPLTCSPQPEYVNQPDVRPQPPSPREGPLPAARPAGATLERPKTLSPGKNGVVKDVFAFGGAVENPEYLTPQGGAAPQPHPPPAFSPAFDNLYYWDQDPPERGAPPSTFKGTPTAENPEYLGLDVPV

[32] = molecular target: Mitogen-activated protein kinase 1 (Homo sapiens) (UniProt P28482); conditions: Compound concentration 1000.0 nM
Chain of Mitogen-activated protein kinase 1 (Homo sapiens) (P28482 whole entry): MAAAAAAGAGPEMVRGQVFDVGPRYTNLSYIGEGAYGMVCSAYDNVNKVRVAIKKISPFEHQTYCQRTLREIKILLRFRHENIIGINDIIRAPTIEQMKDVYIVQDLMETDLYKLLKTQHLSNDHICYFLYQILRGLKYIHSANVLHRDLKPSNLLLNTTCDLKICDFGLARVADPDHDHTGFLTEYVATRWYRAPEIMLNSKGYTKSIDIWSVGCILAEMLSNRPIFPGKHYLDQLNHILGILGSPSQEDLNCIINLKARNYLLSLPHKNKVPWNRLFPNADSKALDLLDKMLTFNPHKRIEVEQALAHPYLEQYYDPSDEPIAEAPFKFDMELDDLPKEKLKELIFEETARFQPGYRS

[33] = molecular target: Glycogen synthase kinase-3 alpha (Homo sapiens) (UniProt P49840); conditions: Compound concentration 1000.0 nM
[34] = molecular target: Casein kinase I isoform alpha (Homo sapiens) (UniProt P48729); conditions: Compound concentration 1000.0 nM
Chain of Casein kinase I isoform alpha (Homo sapiens) (P48729 2-337 limits assumed): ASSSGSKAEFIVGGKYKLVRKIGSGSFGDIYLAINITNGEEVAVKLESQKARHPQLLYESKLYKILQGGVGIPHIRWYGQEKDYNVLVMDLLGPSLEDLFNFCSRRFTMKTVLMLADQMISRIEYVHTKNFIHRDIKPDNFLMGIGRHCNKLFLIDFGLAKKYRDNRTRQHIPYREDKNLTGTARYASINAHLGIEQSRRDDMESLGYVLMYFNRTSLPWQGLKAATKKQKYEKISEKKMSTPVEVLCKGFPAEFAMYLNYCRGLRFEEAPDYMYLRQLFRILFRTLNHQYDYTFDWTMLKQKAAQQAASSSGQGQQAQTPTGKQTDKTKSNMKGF

[35] = molecular target: cAMP-dependent protein kinase catalytic subunit beta (Homo sapiens) (UniProt P22694); conditions: Compound concentration 1000.0 nM
[36] = molecular target: Serine/threonine-protein kinase pim-2 (Homo sapiens) (UniProt Q9P1W9); conditions: Compound concentration 1000.0 nM
[37] = molecular target: LIM domain kinase 1 (Homo sapiens) (UniProt P53667); conditions: Compound concentration 1000.0 nM
Chain of LIM domain kinase 1 (Homo sapiens) (P53667 whole entry, looked up, the tested form may be a part): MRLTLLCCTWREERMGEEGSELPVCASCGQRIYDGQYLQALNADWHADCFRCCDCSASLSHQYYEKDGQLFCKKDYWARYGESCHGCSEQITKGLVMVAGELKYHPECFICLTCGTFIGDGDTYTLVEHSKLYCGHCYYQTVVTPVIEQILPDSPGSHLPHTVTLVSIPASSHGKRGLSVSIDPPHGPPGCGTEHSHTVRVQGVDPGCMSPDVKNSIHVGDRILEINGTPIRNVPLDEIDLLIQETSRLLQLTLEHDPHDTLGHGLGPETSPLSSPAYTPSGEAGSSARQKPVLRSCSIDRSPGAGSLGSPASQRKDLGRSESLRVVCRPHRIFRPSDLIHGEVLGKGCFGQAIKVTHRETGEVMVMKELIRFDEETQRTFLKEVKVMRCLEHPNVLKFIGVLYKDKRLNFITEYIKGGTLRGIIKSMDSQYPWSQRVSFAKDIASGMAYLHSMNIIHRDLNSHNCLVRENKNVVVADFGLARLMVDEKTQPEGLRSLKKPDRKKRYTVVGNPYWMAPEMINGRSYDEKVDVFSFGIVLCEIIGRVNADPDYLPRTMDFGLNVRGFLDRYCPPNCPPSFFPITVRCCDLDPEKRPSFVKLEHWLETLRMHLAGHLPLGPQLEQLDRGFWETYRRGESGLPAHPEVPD

[38] = molecular target: Mitogen-activated protein kinase kinase kinase kinase 4 (Homo sapiens) (UniProt O95819); conditions: Compound concentration 1000.0 nM
[39] = molecular target: Phosphatidylinositol 4-kinase beta (Homo sapiens) (UniProt Q9UBF8); conditions: Compound concentration 1000.0 nM
Chain of Phosphatidylinositol 4-kinase beta (Homo sapiens) (Q9UBF8 2-816 limits assumed): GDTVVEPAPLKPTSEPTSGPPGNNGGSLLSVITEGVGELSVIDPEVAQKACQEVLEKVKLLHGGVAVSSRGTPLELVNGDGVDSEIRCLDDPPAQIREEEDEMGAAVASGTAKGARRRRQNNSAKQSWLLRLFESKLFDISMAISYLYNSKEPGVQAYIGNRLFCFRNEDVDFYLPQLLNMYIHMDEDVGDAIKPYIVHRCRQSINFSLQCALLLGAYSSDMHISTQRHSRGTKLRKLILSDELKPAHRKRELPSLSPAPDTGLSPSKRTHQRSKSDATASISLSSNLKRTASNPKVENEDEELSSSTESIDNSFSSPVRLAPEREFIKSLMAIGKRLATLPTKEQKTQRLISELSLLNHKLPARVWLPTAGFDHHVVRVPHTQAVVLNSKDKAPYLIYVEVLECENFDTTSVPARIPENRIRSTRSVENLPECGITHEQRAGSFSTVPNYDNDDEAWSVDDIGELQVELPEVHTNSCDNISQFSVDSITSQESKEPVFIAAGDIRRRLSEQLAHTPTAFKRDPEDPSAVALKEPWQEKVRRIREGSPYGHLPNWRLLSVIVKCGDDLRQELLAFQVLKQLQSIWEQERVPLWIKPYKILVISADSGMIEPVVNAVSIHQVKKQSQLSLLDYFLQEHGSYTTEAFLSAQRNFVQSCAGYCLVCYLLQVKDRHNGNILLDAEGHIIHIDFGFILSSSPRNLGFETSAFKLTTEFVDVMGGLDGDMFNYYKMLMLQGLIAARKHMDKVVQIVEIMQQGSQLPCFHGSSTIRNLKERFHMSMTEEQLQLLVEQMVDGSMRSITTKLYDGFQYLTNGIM

`CCC(=N\O)/C(C)=C/c1ccc(F)c(C)c1` [A-226] showed a residual activity [1] of 100%, a residual activity [2] of 100% and a residual activity [3] of 92%. The residual activity [4] was 96%, the residual activity [5] was 100% and the residual activity [6] was 96%. It also gave a residual activity [7] of 100%, an inhibition [8] of 8.6% and a residual activity [9] of 69%. For the same compound, the residual activity [10] was 99%, the residual activity [11] was 100% and the residual activity [12] was 100%. For the same compound, the residual activity [13] was 81%, the residual activity [14] was 100% and the residual activity [15] was 100%. It also gave a residual activity [16] of 84%, a residual activity [17] of 99% and a residual activity [18] of 100%. It also gave a residual activity [19] of 100%, a residual activity [20] of 100% and a residual activity [21] of 87%. The residual activity [22] was 98%, the residual activity [23] was 100% and the residual activity [24] was 100%. It also gave an inhibition [25] of -2.46%, a residual activity [26] of 73% and a residual activity [27] of 100%. For the same compound, the residual activity [28] was 100%, the residual activity [29] was 98% and the residual activity [30] was 100%. It also gave a residual activity [31] of 91%, a residual activity [32] of 92% and a residual activity [33] of 100%. It also gave a residual activity [34] of 100%, a residual activity [35] of 100% and a residual activity [36] of 100%. For the same compound, the residual activity [37] was 100%, the residual activity [38] was 100% and the residual activity [39] was 100%.
In the case of `CCC(=N\O)/C(C)=C/c1ccc(F)cc1` [A-079], the residual activity [1] was 64%, the residual activity [2] was 67% and the residual activity [3] was 100%. It also gave a residual activity [4] of 85%, a residual activity [5] of 88% and a residual activity [6] of 80%. The residual activity [7] was 79%, the inhibition [8] was 15.7% and the residual activity [9] was 100%. The residual activity [10] was 81%, the residual activity [11] was 80% and the residual activity [12] was 100%. The residual activity [13] was 95%, the residual activity [14] was 100% and the residual activity [15] was 71%. For the same compound, the residual activity [16] was 88%, the residual activity [17] was 100% and the residual activity [18] was 46%. For the same compound, the residual activity [19] was 81%, the residual activity [20] was 81% and the residual activity [21] was 94%. For the same compound, the residual activity [22] was 100%, the residual activity [23] was 84% and the residual activity [24] was 80%. It also gave an inhibition [25] of 15.2%, a residual activity [26] of 99% and a residual activity [27] of 81%. For the same compound, the residual activity [28] was 100%, the residual activity [29] was 91% and the residual activity [30] was 100%. It also gave a residual activity [31] of 83%, a residual activity [32] of 71% and a residual activity [33] of 100%. The residual activity [34] was 74%, the residual activity [35] was 89% and the residual activity [36] was 83%. It also gave a residual activity [37] of 78%, a residual activity [38] of 97% and a residual activity [39] of 50%.
